Read-outs that look alike come from different tables or passages of the source.
Key:
[1] = system: monocyte chemoattractant protein (MCP-1); conditions: 24 hours, RAW cells activated with 1 μg/mL LPS
Procedure: The following study was conducted to determine the effect of the combination of sulforaphane and magnesium sulfate (MgSO4) on expression of monocyte chemoattractant protein (MCP-1), which is a mediator of inflammation. MCP-1 is chemokine which attracts monocytes, macrophages, and lymphocytes to sites of inflammation. A reduction in MCP-1 is beneficial for the health of endothelial cells which line the cardiovascular system.
In the study, RAW cells were activated with 1 μg/mL lipopolysaccharide (LPS) for 30 minutes to stimulate the induction of MCP-1 gene expression. Following LPS treatment, the cells were treated with one of the following: (i) DMSO (vehicle control), (ii) 0.5 μM SFN, (iii) 2.5 mM MgSO4, or (iv) the combination of 0.5 μM SFN and 2.5 mM MgSO4. After treatment for 24 hours, the MCP-1 levels were assessed via quantitative RT-PCR.

[2] = system: broccoli sprout-derived myrosinase; test: Hydrolysis of glucoraphanin (broccoli seed extract) by myrosinase as a function of ascorbic acid concentration; format: biochemical; conditions: 38° C.; for Slope (rate of glucoraphanin consumption): linear regression 0-60 min
Procedure: About 250 mg of broccoli seed extract containing about 12% (w/w) glucoraphanin were subjected to hydrolysis by a fixed concentration of broccoli sprout-derived myrosinase in the presence of variable concentration of ascorbic acid, ranging from 0 to 600 μmoles/Liter. The reaction mixtures were thermostated at 38° C.; aliquots were withdrawn every 15 minutes for 60 minutes, and concentration of glucoraphanin determined chromatographically. The rate of glucoraphanin consumption was interpreted as the rate its conversion to sulforaphane. Graphical representation of glucoraphanin content reduction as a function of increasing ascorbic acid concentration results in a series of linear plots; the slopes of the linear regression lines reflect the rate of glucoraphanin consumption, in μmoles/minute. It is apparent that in the presence of 600 μmoles/Liter concentration of ascorbic acid, the reaction rate increased 13-fold relative to that which proceeded in the absence of modulatory effects of ascorbic acid.

myrosinase [3] = test: Equimolar conversion of glucoraphanin to sulforaphane by myrosinase, with and without ascorbic acid; format: biochemical; conditions: Part 2; broccoli seed extract fixed at 250 mg
Procedure: A two-part experiment was conducted to further elucidate the role of ascorbic acid in modulating myrosinase activity. […] A control sample contained no ascorbic acid, and the enzymatic conversion proceeded unassisted by a co-factor. PART 1. […] PART 2. While keeping the amount of broccoli seed extract fixed at 250 mg, the concentration of ascorbic acid was varied from 0.4 mmol/Liter to 3.8 mmol/Liter.

myrosinase [4] = test: Conversion of glucoraphanin to sulforaphane in Simulated Intestinal Fluid; format: biochemical, broccoli; conditions: 0.25 to 1.00 mmol/Liter ascorbic acid, 38° C., especially at the earlier stages, FIG. 4
Procedure: Simulated Intestinal Fluid (SIF) powder, a commercially supplied concentrate closely approximating the human intestinal content in terms of composition, pH and ionic strength, was used. The experiment utilized a USP Dissolution Apparatus 2 (paddles), where into six dissolution vessels 500 mL of Simulated Intestinal Fluid was dispensed, along with 150 mg of freeze-dried broccoli sprout powder as a source of myrosinase. […] Aliquots were withdrawn every 15 minutes, and assayed for sulforaphane.

[5] = system: NAD(P)H:quinine oxidoreductase (NQO1); conditions: oral administration; mammary epithelium; Sprague-Dawley rats; cited from earlier work
heme oxygenase-1 (HO-1) = conditions: oral administration; mammary epithelium; Sprague-Dawley rats; cited from earlier work
mammary tumors = conditions: Sprague-Dawley rats; cited from earlier work

With O=S(=O)([O-])[O-].[Mg+2] [magnesium sulfate] the “decrease in MCP-1 levels” value ([1]; 2.5 mM MgSO4) was “approximately 16%”.
For O=C1O[C@H]([C@@H](O)CO)C(O)=C1O [Ascorbic Acid, ascorbic acid], the “increase of reaction rate (glucoraphanin consumption)” value ([2]; 600 μmoles/Liter ascorbic acid, relative to absence of ascorbic acid) was 13 fold, the “Slope (rate of glucoraphanin consumption)” value (“Slope” below) ([2]; ascorbic acid 50 μM) was -0.286 µmol/min and the “glucoraphanin (GR) content” value ([2]; ascorbic acid 50 μM, time 0 min) was 93.36 µmol. For the same compound, the “glucoraphanin (GR) content” value ([2]; ascorbic acid 50 μM, time 15 min) was 89.20 µmol, the “glucoraphanin (GR) content” value ([2]; ascorbic acid 50 μM, time 30 min) was 84.24 µmol and the “glucoraphanin (GR) content” value ([2]; ascorbic acid 50 μM, time 45 min) was 80.30 µmol. The “glucoraphanin (GR) content” value ([2]; ascorbic acid 50 μM, time 60 min) was 76.36 µmol, the “Slope” value ([2]; ascorbic acid 125 μM) was -0.5622 µmol/min and the “glucoraphanin (GR) content” value ([2]; ascorbic acid 125 μM, time 0 min) was 93.36 µmol. The “glucoraphanin (GR) content” value ([2]; ascorbic acid 125 μM, time 15 min) was 84.52 µmol, the “glucoraphanin (GR) content” value ([2]; ascorbic acid 125 μM, time 30 min) was 75.92 µmol and the “glucoraphanin (GR) content” value ([2]; ascorbic acid 125 μM, time 45 min) was 68.09 µmol. The “glucoraphanin (GR) content” value ([2]; ascorbic acid 125 μM, time 60 min) was 59.41 µmol, the “Slope” value ([2]; ascorbic acid 250 μM Filtered) was -0.4714 µmol/min and the “glucoraphanin (GR) content” value ([2]; ascorbic acid 250 μM Filtered, time 0 min) was 93.36 µmol. For the same compound, the “glucoraphanin (GR) content” value ([2]; ascorbic acid 250 μM Filtered, time 15 min) was 86.31 µmol, the “glucoraphanin (GR) content” value ([2]; ascorbic acid 250 μM Filtered, time 30 min) was 79.44 µmol and the “glucoraphanin (GR) content” value ([2]; ascorbic acid 250 μM Filtered, time 45 min) was 71.94 µmol. The “glucoraphanin (GR) content” value ([2]; ascorbic acid 250 μM Filtered, time 60 min) was 65.18 µmol, the “Slope” value ([2]; ascorbic acid 250 μM) was -0.7901 µmol/min and the “glucoraphanin (GR) content” value ([2]; ascorbic acid 250 μM, time 0 min) was 93.36 µmol. The “glucoraphanin (GR) content” value ([2]; ascorbic acid 250 μM, time 15 min) was 80.95 µmol, the “glucoraphanin (GR) content” value ([2]; ascorbic acid 250 μM, time 30 min) was 69.06 µmol and the “glucoraphanin (GR) content” value ([2]; ascorbic acid 250 μM, time 45 min) was 57.63 µmol. For the same compound, the “glucoraphanin (GR) content” value ([2]; ascorbic acid 250 μM, time 60 min) was 45.76 µmol, the “Slope” value ([2]; ascorbic acid 400 μM) was -1.007 µmol/min and the “glucoraphanin (GR) content” value ([2]; ascorbic acid 400 μM, time 0 min) was 93.36 µmol. For the same compound, the “glucoraphanin (GR) content” value ([2]; ascorbic acid 400 μM, time 15 min) was 78.32 µmol, the “glucoraphanin (GR) content” value ([2]; ascorbic acid 400 μM, time 30 min) was 62.78 µmol and the “glucoraphanin (GR) content” value ([2]; ascorbic acid 400 μM, time 45 min) was 47.67 µmol. The “glucoraphanin (GR) content” value ([2]; ascorbic acid 400 μM, time 60 min) was 33.15 µmol, the “Slope” value ([2]; ascorbic acid 600 μM) was -1.2 µmol/min and the “glucoraphanin (GR) content” value ([2]; ascorbic acid 600 μM, time 0 min) was 93.36 µmol. For the same compound, the “glucoraphanin (GR) content” value ([2]; ascorbic acid 600 μM, time 15 min) was 75.02 µmol, the “glucoraphanin (GR) content” value ([2]; ascorbic acid 600 μM, time 30 min) was 55.66 µmol and the “glucoraphanin (GR) content” value ([2]; ascorbic acid 600 μM, time 45 min) was 37.50 µmol. The “glucoraphanin (GR) content” value ([2]; ascorbic acid 600 μM, time 60 min) was 22.09 µmol, the “ascorbic acid concentration up to which myrosinase-promoted conversion increases apparently linearly, then levels off” value (myrosinase [3]) was “about 2 mmol/L” and the “relation of sulforaphane yield to ascorbic acid concentration” value (myrosinase [4]) was “direct correlation between larger yield of sulforaphane and higher concentrations of ascorbic acid”.
In the case of C[S+]([O-])CCCCN=C=S (centres unmarked) [sulforaphane, 1-isothiocyanato-4-methylsulfinylbutane], the “decrease in MCP-1 levels” value ([1]; 0.5 μM SFN) is given as “approximately 29%”, the “increase in NQO1 enzymatic activity” value [5] is given as 3 fold and the “elevated immunostaining of HO-1” value (heme oxygenase-1 (HO-1)) is given as 4 fold. For the same compound, the “blocking the formation of mammary tumors” value (mammary tumors) was “effective in blocking the formation of mammary tumors”.

Source: US20150118304A1, “COMPOSITIONS COMPRISING SULFORAPHANE OR A SULFORAPHANE PRECURSOR AND MAGNESIUM” (Nutramax Laboratories, Inc., priority 2012, published 2015)
